Legend:
Assay type in all cases: cell-based, human
[1] = test system: SQ-20B cells; assay: IC50 determination by clonogenic cell kill (24 hour drug treatment, colonies scored after 2 to 3 weeks); conditions: 24 hour treatment
Protocol: IC50 is defined as the concentration of the HDAC inhibitor that kills 50% of cells following treatment with the drug. To determine the IC50, a series of dilutions of drug is used over a broad range, for example 0-1.6 μg/ml. Approximately 100-400 cells are seeded into T-25 flasks in triplicate and treated with various concentrations of the drug. After a 24 hour treatment, the cells are washed with standard PBS (phosphate buffered saline) solution. Cells are then grown in fresh media for 2 to 3 weeks. Colonies are stained with crystal violet and scored. Concentrations of drugs showing 50% cell death represent the IC50 concentration.

[2] = test system: SQ-20B cells; assay: Clonogenic survival after ionizing radiation, fit to the single hit multitarget and linear quadratic models; parameters: α (linear quadratic model) / β (linear quadratic model) / Do (multitarget model radiosensitivity): unit not given here; conditions: for Do (multitarget model radiosensitivity) / α (linear quadratic model) / β (linear quadratic model): SQ-20B cells treated with drug at IC50, then gamma radiation
Protocol: Logarithmically growing SQ-20B cells were treated with TSA (about 60 ng/ml) for about 24 h and the medium was replaced with fresh medium. Cells were exposed to a graded dose of gamma radiation. A semi-logarithmic plot of the data for these cells is shown. Clonogenic survival numbers were determined and fit to the single hit multitarget and the linear quadratic models for analysis, measured by clonogenic survival analysis. Points and bars represent mean+/−SEM from triplicate flasks in each experiment.
The effectiveness of a particular treatment can be determined by measuring the radiation survival. Post treatment survival can be studied both in vitro and in vivo. For example, for in vitro determinations, exponentially growing cells can be exposed to known doses of radiation and the survival of the cells monitored. Irradiated cells are plated and cultured for about 14-about 21 days, and the colonies are stained. The surviving fraction is […]. Graphing the surviving fraction on a log scale versus the absorbed dose on a linear scale generates a survival curve. Survival curves generally show an exponential decrease in the fraction of surviving cells at higher radiation doses after an initial shoulder region in which the dose is sublethal. A similar protocol can be used for chemical agents.
Two mathematical models are commonly employed to analyze radiation survival data. A first model is the multi-target model. In this analysis, the reciprocal of the slope of the survival curve is defined as D0, the radiosensitivity of the cell population or tissue under investigation. D0 is the dose required to reduce the surviving fraction to about 37% in the exponential portion of the survival curve. The extrapolation of the linear portion of the curve to the y-intercept is denoted n. The width of the shoulder region is represented by drawing a line from the 100% survival point to the extrapolation line, this width is denoted Dq. Dq is the quasi-threshold dose, or the point at which the reduction in surviving fraction as a function of radiation dosage becomes exponential. The Dq value can also provide an estimate of an additional total dose required for each division of a single dose therapy into fractional doses. The additional dose is required to overcome the effect of sublethal damage repair that occurs when two sublethal doses are separated in time.
The linear quadratic model (surviving fraction=[…]) is used to fit radiation survival data to a continuously bending curve, where D is dose and α and β are constants. Alpha is the linear component, a measure of the initial slope that represents single-hit killing kinetics and dominates the radiation response at low doses. Beta is the quadratic component of cell killing, that represents multiple-hit killing and causes the curve to bend at higher doses. The alpha:beta ratio is the dose at which the linear and quadratic components of cell killing are equal. The more linear the response to killing of cells at low radiation dose, the higher is the value of alpha, and the greater is the radiosensitivity of the cells.
A semi-logarithmic plot of the mean+/−SEM from triplicate flasks in each experiment for these cells is shown. Logarithmically growing SQ-20B cells were treated with TSA (about 60 ng/ml) for about 24 h and the medium was replaced with fresh medium. Cells were exposed to a graded dose of gamma radiation. Clonogenic survivals were determined and fit to the single hit multitarget and the linear quadratic models for analysis.

[3] = test system: SQ-20B cells; assay: Apoptotic index
Protocol: SQ-20B cells were exposed to about 10 Gy of irradiation. Time zero refers to cells that were subjected to sham irradiation. At the indicated times thereafter, attached and floating cells were collected and the number of apoptotic cells was determined as a percentage of the total number of cells (apoptotic index). Data shown represent mean values±SD from three independent experiments.
HDAC inhibitors are known to promote cancer cell death through apoptosis in vitro and in vivo. This has been a basis for the use of HDAC inhibitors at high concentrations as a single agent in chemical therapy. However, we have determined that the amount effective to synergize radiation-induced cell death is substantially less than the amount required to promote apoptosis. […] Concentrations that produce these effects can be determined for any HDAC inhibitory compound by one of skill in the art by observation of markers of apoptosis such as, for example, the apoptotic index and caspase activities.
Treatment with TSA (about 60 ng/ml) or mock treatment was followed by radiation (about 10 Gy). At about 24, about 48, and about 72 hours, attached and floating cells were collected and the number of apoptotic cells was determined as a percentage of the total number of cells (apoptotic index).

[4] = test system: SQ-20B cells; assay: Cell cycle distribution by flow cytometry (G1 phase); conditions: for Duration of G1 arresting effect: about 24 hour exposure, TSA about 60 ng/ml, mimosine about 0.4 mM
Protocol: FIGS. 2A and 2B show cell cycle distributions of SQ20B cells after treatment with either TSA (FIG. 2A) or mock treatment (FIG. 2B) for 24 h. Cells were washed with fresh medium and exposed to about 10 Gy ionizing radiation. Cell nuclei were prepared for flow cytometric analysis using the procedure of Vindelov et al. (46). The samples were analyzed on a Becton-Dickinson FACStarplus instrument and the percentage of nuclei with G1, S, and G2/M DNA content was determined. […] The radiation sensitivity of cells is a function of the cell cycle. The lethal effect of radiation exposure is often observed only after subsequent cell division. Accordingly, the G1 phase is the more radiation sensitive phase. The compounds employed in the invention are observed to maintain cells in the G1 phase following radiation exposure. Comparing FIG. 2A to FIG. 2B, it can be seen that exposure of SQ-20B cells to TSA for about 24 hours prior to radiation results in an accumulation of more than about 70% of cells in the G1 phase and a maintenance of about 50% of cells for about 12 hours. After treatment with either TSA (panel A) or mock treatment (panel B) for about 24 h, cells were washed with fresh medium and exposed to about 10 Gy ionizing radiation. Cell nuclei were prepared for flow cytometric analysis. The samples were analyzed on a Becton-Dickinson FACStarplus® instrument and the percentage of nuclei with G1, S, and G2/M DNA content was determined. By comparison, irradiated mock-treated cells are not arrested.

Compound | IC50 (concentration that kills 50% of cells) [1] | Do (multitarget model radiosensitivity) [2] | α (linear quadratic model) [2] | β (linear quadratic model) [2] | Sensitization to ionizing radiation ([2]; head and neck tumor cells, at about the IC50 concentration) | Apoptotic index, treated versus mock treated ([3]; about 60 ng/ml followed by about 10 Gy, about 24, 48, 72 hours) | Promotion of apoptosis ([3]; at about 3 to about 7 times the IC50) | Promotion of apoptosis ([3]; at concentrations of about 200-about 400 ng/ml) | Promotion of apoptosis ([3]; at the IC50 concentration of about 60 ng/ml) | Duration of G1 arresting effect [4] | Cells accumulated in the G1 phase ([4]; exposure for about 24 hours prior to radiation (about 10 Gy)) | Cells maintained in the G1 phase ([4]; maintained for about 12 hours after about 10 Gy)
C/C=C1\NC(=O)[C@H]2CSSCC/C=C/[C@H](CC(=O)N[C@H](C(C)C)C(=O)N2)OC(=O)[C@H](C(C)C)NC1=O [FR, depsipsptide (FR 901228)] | 0.005 µg/mL | 1.65 | 0.104 | 0.033 |  |  |  |  |  |  |  | 
CN(C)c1ccc(C(=O)NCCCCCCC(=O)NO)cc1 [M344] | 0.32 µg/mL | 1.65 | 0.077 | 0.033 |  |  |  |  |  |  |  | 
CN(C)c1ccc(C(=O)NCCCCCC(=O)NO)cc1 [MD85] | 0.1 µg/mL | 2.49 | 0.024 | 0.022 |  |  |  |  |  |  |  | 
O=C(CCCCCCC(=O)Nc1ccccc1)NO [SAHA, suberonylanilide hydroxamic acid] |  | 1.88 | 0.011 | 0.031 |  |  |  |  |  |  |  | 
CC(/C=C/C(=O)NO)=C\[C@@H](C)C(=O)c1ccc(N(C)C)cc1 [TSA, trichostatin A] | about 60 ng/ml | 1.64 | 0.126 | 0.030 | significantly sensitized head and neck tumor cells to ionizing radiation | the number of treated and untreated apoptotic cells were similar | does promote apoptosis | did promote significant apoptosis | did not promote significant apoptosis | about 12 hours | more than 70% | about 50%
NC(Cn1ccc(=O)c(O)c1)C(=O)O (stereo not shown) [mimosine] |  |  |  |  |  |  |  |  |  | about 4 hours |  | 
